This note sets out measurements from ChEMBL document CHEMBL4613225, “Preparation and biological evaluation of BACE1 inhibitors: Leveraging trans-cyclopropyl moieties as ligand efficient conformational constraints” (Bioorg Med Chem, 2020).

Data set [1] can be described thus: Drug level in PDAPP V717F transgenic mouse plasma assessed as unbound fraction at 100 mg/kg, sc. In kind it is ADME, organism-based. The following applies: in vivo.
The nature of data set [2]: Drug level in PDAPP V717F transgenic mouse brain at 100 mg/kg, sc. The data set is classed as ADME, organism-based. The note with it: in vivo, read-out: Ct.
Data set [3] in a line: Drug level in PDAPP V717F transgenic mouse brain at 30 mg/kg, sc. The data set is classed as ADME, organism-based. The note with it: in vivo, read-out: Ct.
A short description of data set [4]: Metabolic stability in rat liver microsomes assessed as metabolized drug level after 30 mins in presence of NADPH by LC-MS/MS analysis. In kind it is ADME, Microsome. The following applies: read-out: Drug metabolism.
Data set [5] is described as follows: Drug level in PDAPP V717F transgenic mouse plasma at 30 mg/kg, sc. In kind it is ADME, organism-based. The following applies: in vivo.
The nature of data set [6]: Drug level in PDAPP V717F transgenic mouse plasma assessed as unbound fraction at 30 mg/kg, sc. In kind it is ADME, organism-based. The following applies: in vivo.
Data set [7] in a line: Metabolic stability in human pooled liver microsomes assessed as metabolized drug level after 30 mins in presence of NADPH by LC-MS/MS analysis. In kind it is ADME, Microsome. The note with it: read-out: Drug metabolism. In general terms: Microsomes from liver hold many membrane-bound enzymes, among them those of drug oxidation.
The nature of data set [8]: Ratio of unbound fraction in PDAPP V717F transgenic mouse brain to plasma at 30 mg/kg, sc. The data set is classed as ADME, organism-based. The following applies: read-out: K(p,uu,brain).
Data set [9] is described as follows: Drug level in PDAPP V717F transgenic mouse brain at 10 mg/kg, sc. The data set is classed as ADME, organism-based. The note with it: in vivo, read-out: Ct.
Data set [10] can be described thus: Drug level in PDAPP V717F transgenic mouse plasma at 10 mg/kg, sc. In kind it is ADME, organism-based. The note with it: in vivo.
The nature of data set [11]: Metabolic stability in mouse liver microsomes assessed as metabolized drug level after 30 mins in presence of NADPH by LC-MS/MS analysis. The following applies: read-out: Drug metabolism. In kind it is ADME, Microsome.
Data set [12] can be described thus: Permeability in MDCK-MDR1 cells at 5 uM after 1 hr by LC-MS/MS analysis. The data set is classed as ADME, cell-based, Canis lupus familiaris. The following applies: dog, read-out: permeability.
Data set [13] can be described thus: Metabolic stability in dog liver microsomes assessed as metabolized drug level after 30 mins in presence of NADPH by LC-MS/MS analysis. The data set is classed as ADME, Canis lupus familiaris, Microsome. The note with it: read-out: Drug metabolism.
Data set [14] in a line: Ratio of unbound fraction in PDAPP V717F transgenic mouse brain to plasma at 100 mg/kg, sc. The note with it: read-out: K(p,uu,brain). In kind it is ADME, organism-based.
A short description of data set [15]: Drug level in PDAPP V717F transgenic mouse plasma assessed as unbound fraction at 10 mg/kg, sc. The note with it: in vivo. In kind it is ADME, organism-based.
Data set [16] can be described thus: Ratio of unbound fraction in PDAPP V717F transgenic mouse brain to plasma at 10 mg/kg, sc. The data set is classed as ADME, organism-based. The following applies: read-out: K(p,uu,brain).
Data set [17] is described as follows: Drug level in PDAPP V717F transgenic mouse plasma at 100 mg/kg, sc. The data set is classed as ADME, organism-based. The note with it: in vivo.

Turning to `C[C@@H]1C[C@H]1COC(C)(C)[C@@H]1C[C@H]1[C@]12CN(c3ncccn3)C[C@H]1CSC(N)=N2`, the “Cp(f)” value in data set [1] is 102 nM; in data set [6], 41 nM; in data set [15], 17 nM. For the same molecule, the concentration in data set [2] came out at 389 nM; in data set [3], 176 nM; in [5] it was 326 nM; in data set [9] it was 63 nM; in data set [10] it was 133 nM; in data set [17] it was 815 nM. Further, the metabolised at 0.5 h in data set [4] came to 98%; in data set [7] it was 31%; in [11], 98%; in data set [13], 79%. In addition, the figures for the Kp uu in [8], in data set [14] and in data set [16] were 0.17, 0.16 and 0.18, respectively. Moreover, the Papp at 1 h, 5 µM in data set [12] came to 36 ×10⁻⁶ cm/s.

Regarding `C[C@@H]1C[C@H]1CNC(=O)[C@@H]1C[C@H]1[C@]12CN(c3ncccn3)C[C@H]1CSC(N)=N2`, the metabolised at 0.5 h amounted to 55% in [4], 13% in [7], 33% in data set [11] and 28% in data set [13]. In addition, the Papp at 1 h, 5 µM in [12] came out at 8 ×10⁻⁶ cm/s.
